According to US20220281848A1, “PYRAZOLE-SUBSTITUTED PYRROLIDINONES AS HERBICIDES” (FMC Corporation, priority 2019, published 2022):

System: plants
Assay: Test D pre-emergence, other plants of Tables D1 and D3
Format: in vivo
Conditions: 20 DAA; for damage to plant (100=total damage to plant; 0=no damage to plant), BIDPI / damage to plant (100=total damage to plant; 0=no damage to plant), BRAPL / damage to plant (100=total damage to plant; 0=no damage to plant), CYPES / damage to plant (100=total damage to plant; 0=no damage to plant), EPHHL / damage to plant (100=total damage to plant; 0=no damage to plant), GLXMA / damage to plant (100=total damage to plant; 0=no damage to plant), IPOHE / damage to plant (100=total damage to plant; 0=no damage to plant), SORVU: preemergent; for CHEAL damage rating / GALAP damage rating / KCHSC damage rating / LOLPE damage rating / POAAN damage rating / STEME damage rating / VERPE damage rating: pre-emergence, 100=total damage, 0=no damage
Outline: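 Damage was rated visually from 0 (none) to 100 (total), at 20 DAA for pre-emergence and 15 d for post-emergence. Plants grew from safener-treated seed in a glasshouse at 24/18° C. or 20/16° C. day/night, 65% humidity, watered twice daily.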

In the case of `CN1CC(c2cnn(C)c2C(F)(F)F)C(C(=O)Nc2cccc(F)c2F)C1=O` (racemic) [Compound 25], the “damage to plant (100=total damage to plant; 0=no damage to plant), BIDPI” value (rate 15) is reported as 0, the “damage to plant (100=total damage to plant; 0=no damage to plant), BIDPI” value (rate 30) is reported as 0 and the “damage to plant (100=total damage to plant; 0=no damage to plant), BIDPI” value (rate 60) is reported as 0. For the same compound, the “damage to plant (100=total damage to plant; 0=no damage to plant), BIDPI” value (rate 130) was 0, the “damage to plant (100=total damage to plant; 0=no damage to plant), BIDPI” value (rate 250) was 0 and the “damage to plant (100=total damage to plant; 0=no damage to plant), BIDPI” value (rate 500) was 0. The “damage to plant (100=total damage to plant; 0=no damage to plant), BRAPL” value (rate 15) was 0, the “damage to plant (100=total damage to plant; 0=no damage to plant), BRAPL” value (rate 30) was 0 and the “damage to plant (100=total damage to plant; 0=no damage to plant), BRAPL” value (rate 60) was 30. For the same compound, the “damage to plant (100=total damage to plant; 0=no damage to plant), BRAPL” value (rate 130) was 80, the “damage to plant (100=total damage to plant; 0=no damage to plant), BRAPL” value (rate 250) was 90 and the “damage to plant (100=total damage to plant; 0=no damage to plant), BRAPL” value (rate 500) was 90. It also gave a CHEAL damage rating (Rates 15) of 0, a CHEAL damage rating (Rates 30) of 0 and a CHEAL damage rating (Rates 60) of 0. It also gave a CHEAL damage rating (Rates 130) of 0, a CHEAL damage rating (Rates 250) of 20 and a CHEAL damage rating (Rates 500) of 50. The “damage to plant (100=total damage to plant; 0=no damage to plant), CYPES” value (rate 15) was 0, the “damage to plant (100=total damage to plant; 0=no damage to plant), CYPES” value (rate 30) was 0 and the “damage to plant (100=total damage to plant; 0=no damage to plant), CYPES” value (rate 60) was 0. For the same compound, the “damage to plant (100=total damage to plant; 0=no damage to plant), CYPES” value (rate 130) was 0, the “damage to plant (100=total damage to plant; 0=no damage to plant), CYPES” value (rate 250) was 0 and the “damage to plant (100=total damage to plant; 0=no damage to plant), CYPES” value (rate 500) was 0. For the same compound, the “damage to plant (100=total damage to plant; 0=no damage to plant), EPHHL” value (rate 15) was 0, the “damage to plant (100=total damage to plant; 0=no damage to plant), EPHHL” value (rate 30) was 0 and the “damage to plant (100=total damage to plant; 0=no damage to plant), EPHHL” value (rate 60) was 0. The “damage to plant (100=total damage to plant; 0=no damage to plant), EPHHL” value (rate 130) was 0, the “damage to plant (100=total damage to plant; 0=no damage to plant), EPHHL” value (rate 250) was 0 and the “damage to plant (100=total damage to plant; 0=no damage to plant), EPHHL” value (rate 500) was 0. For the same compound, the GALAP damage rating (Rates 15) was 0, the GALAP damage rating (Rates 30) was 0 and the GALAP damage rating (Rates 60) was 0. The GALAP damage rating (Rates 130) was 0, the GALAP damage rating (Rates 250) was 0 and the GALAP damage rating (Rates 500) was 0. For the same compound, the “damage to plant (100=total damage to plant; 0=no damage to plant), GLXMA” value (rate 15) was 0, the “damage to plant (100=total damage to plant; 0=no damage to plant), GLXMA” value (rate 30) was 0 and the “damage to plant (100=total damage to plant; 0=no damage to plant), GLXMA” value (rate 60) was 0. For the same compound, the “damage to plant (100=total damage to plant; 0=no damage to plant), GLXMA” value (rate 130) was 0, the “damage to plant (100=total damage to plant; 0=no damage to plant), GLXMA” value (rate 250) was 0 and the “damage to plant (100=total damage to plant; 0=no damage to plant), GLXMA” value (rate 500) was 0. For the same compound, the “damage to plant (100=total damage to plant; 0=no damage to plant), IPOHE” value (rate 15) was 0, the “damage to plant (100=total damage to plant; 0=no damage to plant), IPOHE” value (rate 30) was 0 and the “damage to plant (100=total damage to plant; 0=no damage to plant), IPOHE” value (rate 60) was 0. For the same compound, the “damage to plant (100=total damage to plant; 0=no damage to plant), IPOHE” value (rate 130) was 0, the “damage to plant (100=total damage to plant; 0=no damage to plant), IPOHE” value (rate 250) was 0 and the “damage to plant (100=total damage to plant; 0=no damage to plant), IPOHE” value (rate 500) was 0. The KCHSC damage rating (Rates 15) was 0, the KCHSC damage rating (Rates 30) was 0 and the KCHSC damage rating (Rates 60) was 0. For the same compound, the KCHSC damage rating (Rates 130) was 0, the KCHSC damage rating (Rates 250) was 0 and the KCHSC damage rating (Rates 500) was 0. The LOLPE damage rating (Rates 15) was 0, the LOLPE damage rating (Rates 30) was 0 and the LOLPE damage rating (Rates 60) was 0. The LOLPE damage rating (Rates 130) was 0, the LOLPE damage rating (Rates 250) was 0 and the LOLPE damage rating (Rates 500) was 0. It also gave a POAAN damage rating (Rates 15) of 0, a POAAN damage rating (Rates 30) of 0 and a POAAN damage rating (Rates 60) of 0. It also gave a POAAN damage rating (Rates 130) of 0, a POAAN damage rating (Rates 250) of 0 and a POAAN damage rating (Rates 500) of 0. The “damage to plant (100=total damage to plant; 0=no damage to plant), SORVU” value (rate 15) was 0, the “damage to plant (100=total damage to plant; 0=no damage to plant), SORVU” value (rate 30) was 0 and the “damage to plant (100=total damage to plant; 0=no damage to plant), SORVU” value (rate 60) was 0. For the same compound, the “damage to plant (100=total damage to plant; 0=no damage to plant), SORVU” value (rate 130) was 0, the “damage to plant (100=total damage to plant; 0=no damage to plant), SORVU” value (rate 250) was 0 and the “damage to plant (100=total damage to plant; 0=no damage to plant), SORVU” value (rate 500) was 0. It also gave an STEME damage rating (Rates 15) of 0, an STEME damage rating (Rates 30) of 0 and an STEME damage rating (Rates 60) of 0. It also gave an STEME damage rating (Rates 130) of 0, an STEME damage rating (Rates 250) of 0 and an STEME damage rating (Rates 500) of 50. For the same compound, the VERPE damage rating (Rates 15) was 0, the VERPE damage rating (Rates 30) was 0 and the VERPE damage rating (Rates 60) was 0. The VERPE damage rating (Rates 130) was 0, the VERPE damage rating (Rates 250) was 0 and the VERPE damage rating (Rates 500) was 10.
